From patent publication US8133902B2, “Ammosamides as anticancer agents” (The Regents of the University of California, priority 2007, dated 2012)
Where two headings read alike, the source gives them in different places.

Columns and labels:
Assay type in all cases: cell-based
[1] = test system: HCT-116 colon carcinoma; assay: in vitro cytotoxicity against HCT-116 colon carcinoma; conditions: Homo sapiens
From the text: Compounds IA and IB are isolated in a pure form from a marine-derived actinomycete strain CNR698. More specifically, compound IA is obtained from the marine-derived actinomycete strain CNR698, and is the first natural product to contain a […] functionality. Compound IB is obtained from the marine-derived actinomycete strain CNR698. The actinomycete was obtained from a marine sediment. Briefly, the actinomycete, identified as a Streptomyces strain (CNR-698) was isolated from bottom sediments collected at a depth of 300 meters in the Bahamas Islands. […] Subsequent cytotoxicity-guided (HCT-116) fractionation by C18 flash chromatography and RP-HPLC led to the isolation of ammosamides A (compound IA) and B (compound IB) as dark blue and blue-purple, respectively (3 and 4 mg/L)
Accordingly, in some embodiments of the invention, compounds IA and IB are used for making pharmaceutical compositions comprising either or both of the two compounds and a pharmaceutically acceptable carrier. In addition, the pharmaceutical compositions can optionally comprise one or more additional anticancer agent(s).
Activity of probe 4 (FIG. 1) was compared to that of ammosamide A (1 on FIG. 1). […] Florescence microscopy was then used to examine the uptake of probe 4, which was concentrated within HeLa, HCT-116 and PC-3 cells within minutes (FIG. 2). The entire fluorescence from addition of 1 mL of 1 μM in […] appeared within the cell.

[2] = test system: HCT-116 cells; assay: cell cycle effects by FACS analysis; conditions: FIG. 3a-c, 50 μM
Description: The results of the study of the activity are discussed below with the reference to FIG. 3. […] Further, FIG. 3a illustrates cell cycle response for unsyncronized HCT-116 cells, FIG. 3b for HCT-116 cells synchronized and treated at G0 and incubated for 12 hours, and FIG. 3c, for HCT-116 cells synchronized and treated at S and incubated for 12 hours.
The effects of probe 4 on cell cycle were evaluated using FACS analysis.

[3] = test system: HeLa, HCT-116 and PC-3 cells; assay: live cell fluorescence microscopy, retention and localization; conditions: pretreatment with 1 mL DMEM containing 10 μM
Description: HeLa cells (ATCC CCL-2) were cultured in phenol red-free Dulbecco's modification of Eagle's medium (DMEM) with 4.5 g/L glucose, […] and 5% heat inactivated fetal calf serum (FCS) in glass-bottom dishes. The cells were synchronized using a double thymidine block. Phenol red, a common additive in DMEM, was not used during the culturing or experimentation. Fluorescent images were collected on a Nikon TE 2000 using irradiation with a mercury vapor lamp (Nikon), filtration through a dichroic filter set (FF409, Semrock) with an excitation at 377±50 nm, dichroic with >98% reflection at 344-404 nm and >98% transmission at 415-570 nm, and emission filter at 447±60 nm, focusing with an Oil Immersion Epiplan 60× objective (Zeiss), and image collection with an SPOT RT-KE color CCD Camera (Diagnostic Instruments Inc.).
The results of the study of the activity are discussed below with the reference to FIG. 2. […]
Live cell fluorescence microscopy was then conducted to detail the intracellular localization of probe 4. […]
After 12 hours of incubation, the blue fluorescence from probe 4 was vesiculated (FIG. 2d). […] In particular, the overlap of red fluorescence from the red lysosome stain, LysoTracker Red DND-99, and the blue fluorescence from probe 4 provided strong evidence in support of this observation (FIG. 2f).

[4] = HCT-116, read-out: cytotoxicity IC50 values
[5] = HCT-116, read-out: in vitro cytotoxicity IC50

| SMILES | IC50 [1, 4] [nM] | IC50 [1, 5] [nM] | cell cycle data relative to probe 4 [2] | effect of pretreatment on uptake of probe 4 [3] |
| --- | --- | --- | --- | --- |
| CN1C(=S)c2cc(C(N)=O)nc3c(N)c(Cl)c(N)c1c23 [Compound IA, ammosamide A] | < 1000 | 320 | Comparable cell cycles data | blocked the uptake of probe 4 |
| CN1C(=O)c2cc(C(N)=O)nc3c(N)c(Cl)c(N)c1c23 [Compound IB, ammosamide B] | < 1000 | 320 | – | – |
